Results from patent US20150071954A1, “STABLE PEPTIDE MIMETICS OF THE HIV-1 GP41 PRE-HAIRPIN INTERMEDIATE” (priority 2012, published 2015).
No end group written: not given here.

Experiments:
[1] = tested on: HXB2; assay type: cell-based, HIV-1; conditions: HeLa P4R5 cells, virus HXB2; read-out: p4/2R5 IC50 HXB2
From the text: (§1) A number of different experimental methods can be used to determine whether or not a gp41 peptide mimetic can form a stable, faithful mimetic of said internal coiled-coil. For example, an assay designed to measure the ability of the conformationally constrained gp41 peptide mimetics to inhibit infectivity of HIV particles can be performed. In one such assay, HeLa cells stably expressing human CD4 and CCR5 receptors and harboring a β-galactosidase reporter gene driven by a tat-responsive fragment of HIV-2 LTR are infected with HIV-1 of various strains in the presence of gp41 peptide mimetics at varying concentrations. After incubating said cells for a specific period of time, the cells are lysed and β-galactosidase activity is quantified.
(§2) This neutralization assay was performed as previously described in Joyce et al., 2002, J Biol Chem 277:45811-45820 with the following modifications: HeLa P4R5 cells were seeded at 1000 cells/well in a 384-well plate and infected the following day with the appropriate HIV-1 or SHIV virus at a multiplicity of infection of approximately 0.01 in the presence of serial dilutions of immune sera or fractionated IgG 48 hours post infection, and cells were lysed and β-galactosidase activity was measured using a chemiluminescent substrate (GalScreen®, Applied Biosystems™, Life Technologies Corp., Carlsbad, Calif.). For analysis of purified IgG, the data are expressed as IC50, defined as the IgG concentration resulting in 50% reduction of chemiluminescence signal. For analysis of sera, the IC50 is defined as the reciprocal serum dilution resulting in 50% reduced chemiluminescence signal.

[2] = tested on: viral strain V570A; assay type: cell-based, HIV-1; conditions: HeLa P4R5 cells, virus V570A; read-out: p4/2R5 IC50 V570A
From the text: as §1, §2

[3] = Circular dichroism (secondary structure, thermal stability); assay type: physicochemical; conditions: pH 4, 20° C.
[4] = Analytical ultracentrifugation (oligomeric state); assay type: physicochemical; conditions: for AUC Ratio (observed to predicted Mw): AUC condition a: 25 mM Na Acetate, 0.15M NaCl, pH 4; for self-association from AUC ratio of observed to predicted molecular weight: monomeric peptides
Description: All analytical ultracentrifugation (AU) experiments were performed with a XL-I analytical ultracentrifuge (Beckman Coulter, Inc., Indianopolis, Ind.) at 20° C. For sedimentation velocity analysis, the samples were centrifuged at 48,000 rpm at 20° C. for 5 hours, with radial absorbance scans taken approximately every 4 minutes. g*(s) analysis was performed with the program DCDT+, version 2.2.1 (John Philo, Thousand Oaks, Calif.) or the Optima XL-I data analysis software (Beckman Coulter, Inc.). Sedimentation equilibrium experiments were conducted at three different loading concentrations and three different rotor speeds (16,000, 20,000, and 30,000). Molecular masses were calculated using the Optima XL-I data analysis software or using Heteroanalysis version 1.1.33 (from the Analytical Ultracentrifugation Facility, Biotechnology and Bioservices Center of the University of Connecticut).

[5] = tested on: D5 IgG binding to 5-helix (recombinant gp41 mimetic); assay: D5/5-Helix Competitive Binding Assay (DCBA), peptide constructs; conditions: for IC50: competition for D5 binding to 5-helix, FRET
Description: An in vitro binding assay based on fluorescence resonance energy transfer (FRET) was performed as previously described in Caulfield et al., 2010, J Biol Chem 285:40604-40611. Briefly, the assay uses D5 IgG (see U.S. Pat. No. 7,744,887) conjugated to europium cryptate (Eu-D5) and a biotinylated derivative of the recombinant gp41 mimetic 5-helix (5H). Biotin-5H binds to a streptavidin-conjugated allophycocyanin (APC) substrate to form a 5H-SA-APC complex. Binding of Eu-D5 to 5H results in FRET from Eu to APC. When the reaction system is excited at a wavelength of 340 nm, the amount of bound Eu-D5 is measured at the emission wavelength of 665 nm, and total Eu is measured at the emission wavelength of 620 nm. Data are reported as 10000× the ratio of signal at 665 nm to signal at 620 nm. Agents that bind competitively to either component cause a decrease in the ratio value.

[6] = biological target: gp41 of HIV-1 virus HXB2 (HIV-1 isolate HXB2) (UniProt P04578); assay: cell-based or functional assay
[7] = biological target: gp41 of HIV-1 virus V570A (HIV-1 isolate HXB2) (UniProt P04578); assay: cell-based or functional assay
[8] = biological target: gp41 of HIV-1 virus HXB2 (HIV-1 isolate HXB2, UniProt P04578 512-856); assay: cell-based or functional assay
[9] = biological target: gp41 of HIV-1 virus V570A (HIV-1 isolate HXB2, UniProt P04578 512-856); assay: cell-based or functional assay
[10] = biological target: the molecule itself; assay: analytical ultracentrifugation (ratio of observed to predicted molecular weight); self-association
[11] = CD condition a: 50 mM Na Acetate, 0.15M NaCl

Molecule: Ac-QARQLLSGIVQQQNNLLRAIEAQQHALQLTVWGIKQLQARILAVERYLKDQ-NH2 (N-terminus assumed) [Peptide N51-3B]
- IC50 [1]: 107 nM
- IC50 [2]: 49.3 nM
- CD % (-helix) [3, 11]: 105%
- AUC Ratio (observed to predicted Mw) [4]: 3.3
- self-association from AUC ratio of observed to predicted molecular weight [4]: strong preference for self-association
- effect of mutations on D5 binding in DCBA [5]: apparent negative impact
- IC50 [5]: > 300 nM

Molecule: Ac-QIRELISKIVEQINNILRAIEAQQHALQLTVWGIKQLQARILAVERYLKDQ-NH2 (N-terminus assumed) [Peptide N51-2B]
- IC50 [1]: 60.9 nM
- IC50 [2]: 33.4 nM
- CD % (-helix) [3, 11]: 97%
- AUC Ratio (observed to predicted Mw) [4]: 3.6
- self-association from AUC ratio of observed to predicted molecular weight [4]: strong preference for self-association
- effect of mutations on D5 binding in DCBA [5]: apparent negative impact
- IC50 [5]: > 300 nM

Molecule: D5 IgG (antibody)
- p4/2R5 IC50 (nM), HXB2 [6]: 179 nM
- p4/2R5 IC50 (nM), V570A [7]: 61.7 nM

Molecule: KTA(N51-3B)3: three thiol tagged monomeric N51-3B peptides ligated on trivalent bromide scaffold KTA-Br (QARQLLSGIVQQQNNLLRAIEAQQHALQLTVWGIKQLQARILAVERYLKDQ-NH2; not fully specified (N-terminus); also: trimer: three S-acetylglycolic thiol-tagged N51-3B ligated on trivalent bromide scaffold KTA-Br)
- CD % (-helix) ([3]; CD condition c: 25 mM Na Acetate): 88%
- AUC Observed Mw: precipitation ([4]; pH 7): ppt (pH 7)
- IC50 [5]: 38.4 nM

B1: N51-3B (L′584) (peptide)
peptide: QARQLLSGIVQQQNNLLRAIEAQQHALQLTVWGIKQLQARILAVERYLKDQ
notes: Monomeric synthetic peptide
- p4/2R5 IC50 (nM), HXB2 [8]: 107 nM
- p4/2R5 IC50 (nM), V570A [9]: 49.3 nM
- binding result [10]: binds

B2: KTA(N51-3B)3 (L′510) (peptide)
peptide: QARQLLSGIVQQQNNLLRAIEAQQHALQLTVWGIKQLQARILAVERYLKDQ
modifications: not fully specified (N-terminus); also: covalent trimer of three N51-3B peptides on Kemp's triacid scaffold
- p4/2R5 IC50 (nM), HXB2 [8]: 79.4 nM
- p4/2R5 IC50 (nM), V570A [9]: 29.1 nM

B3: N51-2B (L′583) (peptide)
peptide: QIRELISKIVEQINNILRAIEAQQHALQLTVWGIKQLQARILAVERYLKDQ
modifications: not fully specified (C-terminus)
notes: Monomeric synthetic peptide made on Rink amide resin; Self-associates in solution
- p4/2R5 IC50 (nM), HXB2 [8]: 60.9 nM
- p4/2R5 IC50 (nM), V570A [9]: 33.4 nM
- binding result [10]: binds
